The record followed here is US6632921B1, “Seryl-lysyl-based peptide and peptidomimetic inhibitors of N-myristoyl transferase as anti-infective agents” (G. D Searle & Co, priority 1995, dated 2003).

One assay deals with T1, human NMT (Homo sapiens, UniProt P30419).
T1 construct: made in house; host or cells: E. coli
T1 sequence (P30419 1-416 isoform P30419-2): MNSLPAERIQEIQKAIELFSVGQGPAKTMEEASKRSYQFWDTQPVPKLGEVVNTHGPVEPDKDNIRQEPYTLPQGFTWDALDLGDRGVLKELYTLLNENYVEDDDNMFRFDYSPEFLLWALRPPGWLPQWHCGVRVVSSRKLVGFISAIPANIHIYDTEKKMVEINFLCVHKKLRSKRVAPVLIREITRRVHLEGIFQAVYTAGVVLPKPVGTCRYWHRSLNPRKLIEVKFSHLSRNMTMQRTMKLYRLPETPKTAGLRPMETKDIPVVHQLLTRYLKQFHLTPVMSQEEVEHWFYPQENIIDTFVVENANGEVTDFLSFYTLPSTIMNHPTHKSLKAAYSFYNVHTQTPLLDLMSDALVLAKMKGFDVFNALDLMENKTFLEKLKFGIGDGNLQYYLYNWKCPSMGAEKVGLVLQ
The experiment in a line: NMT enzyme inhibition assay (radiochemical HPLC end-point), human NMT. The class given is biochemical. As to the method:
Recombinant Candida albicans and human NMTs were expressed and purified from E. coli using previously described protocols. [D. A. Towler et al, Proc. Natl. Acad. Sci. USA, 84, 2707-2712 (1987); R. C. Weigand et al, J. Biol. Chem., 267, 8591-8598 (1992); R. J. Duronio et al, Proc. Natl. Acad. Sci. USA, 89, 4129-4133 (1992)] The ability of compounds to inhibit Candida NMT enzymatic activity was assessed using a radiochemical HPLC end-point assay as described previously for Saccharomyces cerevisiae and human NMTs. [D. Towler et al, Proc. Natl. Acad. Sci. USA, 83, 2812-2816 (1986); W. J. Rocque et al, J. Biol. Chem., 268, 9964-9971 (1991)] The donor substrate [^3H]myristoyl-coenzyme A was enzymatically synthesized from [^3H]myristic acid (50 Ci/mmol, Amersham, Arlington Heights, Ill.) and coenzyme A (Fluka Chemical Corp., Ronkonkoma, N.Y.), and purified as described previously. [W. J. Rocque et al, J. Biol. Chem., 268, 9964-9971 (1991)] The peptide acceptor substrate GNAASARR-NH2 was prepared by solid-phase peptide synthesis using the t-Boc amino acid methodology, followed by HF treatment and reverse-phase HPLC purification. Inhibitor stock solutions were prepared at 22 mM in DMSO; the final concentration of DMSO in each assay was 0.5% (v/v). […] The reaction was quenched after 10 minutes at 24° C. by the addition of ice-cold MeOH, and the reaction products were separated and measured using C4 reverse-phase HPLC (Vydac 214TP10415; Separations Group, Hesperia, Calif.) and in-line scintillation counting using a Radiomatic A250 (Packard Instruments, Downers Grove, Ill.) and Ecolite(+) (ICN Biomedical, Costa Mesa, Calif.) as the scintillant. Selectivity was determined by calculating the ratio of the IC50 against human NMT to the IC50 against C. albicans NMT.

The next assay addresses T2, Candida albicans NMT (Candida albicans, UniProt P30418).
T2 construct: made in house; host or cells: E. coli
T2 sequence (P30418 1-451): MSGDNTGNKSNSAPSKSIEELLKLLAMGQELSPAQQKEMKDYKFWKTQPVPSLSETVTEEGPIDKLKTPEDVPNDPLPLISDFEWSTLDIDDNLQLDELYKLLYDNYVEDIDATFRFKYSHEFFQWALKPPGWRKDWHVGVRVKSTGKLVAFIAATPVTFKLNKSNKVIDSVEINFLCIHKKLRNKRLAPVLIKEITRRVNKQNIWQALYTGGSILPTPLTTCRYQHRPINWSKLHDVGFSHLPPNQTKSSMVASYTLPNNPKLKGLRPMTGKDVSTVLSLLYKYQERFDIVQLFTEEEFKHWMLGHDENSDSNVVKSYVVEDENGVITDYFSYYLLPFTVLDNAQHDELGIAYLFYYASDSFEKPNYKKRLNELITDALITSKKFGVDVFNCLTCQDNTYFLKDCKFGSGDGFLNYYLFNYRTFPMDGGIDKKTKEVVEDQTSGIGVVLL
The experiment in a line: NMT enzyme inhibition assay (radiochemical HPLC end-point), Candida NMT. Type of assay: biochemical. The settings on record: for pIC50: read-out: IC50 caNMT. As to the method: Recombinant Candida albicans and human NMTs were expressed and purified from E. coli using previously described protocols. [D. A. Towler et al, Proc. Natl. Acad. Sci. USA, 84, 2707-2712 (1987); R. C. Weigand et al, J. Biol. Chem., 267, 8591-8598 (1992); R. J. Duronio et al, Proc. Natl. Acad. Sci. USA, 89, 4129-4133 (1992)] The ability of compounds to inhibit Candida NMT enzymatic activity was assessed using a radiochemical HPLC end-point assay as described previously for Saccharomyces cerevisiae and human NMTs. [D. Towler et al, Proc. Natl. Acad. Sci. USA, 83, 2812-2816 (1986); W. J. Rocque et al, J. Biol. Chem., 268, 9964-9971 (1991)] The donor substrate [^3H]myristoyl-coenzyme A was enzymatically synthesized from [^3H]myristic acid (50 Ci/mmol, Amersham, Arlington Heights, Ill.) and coenzyme A (Fluka Chemical Corp., Ronkonkoma, N.Y.), and purified as described previously. [W. J. Rocque et al, J. Biol. Chem., 268, 9964-9971 (1991)] The peptide acceptor substrate GNAASARR-NH2 was prepared by solid-phase peptide synthesis using the t-Boc amino acid methodology, followed by HF treatment and reverse-phase HPLC purification. Inhibitor stock solutions were prepared at 22 mM in DMSO; the final concentration of DMSO in each assay was 0.5% (v/v). Inhibition assays were carried out by combining variable amounts of inhibitor or buffer with […] of [^3H]myristoyl-coenzyme A (1 μCi, 9.09 Ci/mmol) and 2.2 nmoles of GNAASARR-NH2 in a total volume of 60 μL of 0.2 M N-[2-hydroxy-ethyl]piperazine-N′-[2-ethanesulfonic acid], pH 7.4, 2 mM DL-dithiothreitol, 0.2 mM ethylene glycol-bis-(β-aminoethyl ether) N,N,N′,N′-tetraacetic acid, and initiating the reaction by the addition of 50 μL of a Candida NMT solution (7-12 ng/50 μL). Assays with human NMT were identical except that they used 60-75 ng/50 μL of enzyme solution and 0.22 nmoles of GNAASARR-NH2. The reaction was quenched after 10 minutes at 24° C. by the addition of ice-cold MeOH, and the reaction products were separated and measured using C4 reverse-phase HPLC (Vydac 214TP10415; Separations Group, Hesperia, Calif.) and in-line scintillation counting using a Radiomatic A250 (Packard Instruments, Downers Grove, Ill.) and Ecolite(+) (ICN Biomedical, Costa Mesa, Calif.) as the scintillant. Selectivity was determined by calculating the ratio of the IC50 against human NMT to the IC50 against C. albicans NMT.

A further assay relates to C.lusi. Briefly: Antifungal susceptibility testing, pH 5.4 assay, different strains of Candida. Type of assay: cell-based, C.lusitaniae. The settings on record: Clavispora lusitaniae, 24 hr.
A further assay relates to C.alb (516). The assay is described as above. The class given is cell-based. The settings on record: Candida albicans, 24 hr. Here is the method:
1) (Assay at DH 5.4/30° C. Incubation/YNB Media).
Antifungal assays were carried out initially by a modification of the method published by Jones, et. al; (1), and communicated to Searle by Dr. Kobayashi, Washington University. [R. N. Jones et al, Manual of Clinical Microbiology, 4th ed., (1985)]
The antifungal susceptibility testing consists of a microdilution broth procedure performed in 96 well microtiter plates (Costar, cat#3799). Briefly, test compounds from a 20 mM stock solution in DMSO are diluted into sterile, deionized water (final DMSO concentration not exceeding 1%), to yield 2× the desired concentration (100 uM, 10 uM and 1 uM for an initial screen, or a selected concentration range in serial 2 fold dilutions for EC50 determination). One hundred microliters (100 ul) of each concentration is dispensed into triplicate wells of a 96 well microtiter plate. Appropriate dilutions of a suspension of C.albicans (1×10^6 cells/ml) in 2× YNB is distributed into each of the wells, including growth control wells containing no test compound as well as control wells with 0.5% DMSO. Amphotericin B at 0.05, 1 and 5 ug/ml is included in each assay plate as a positive control. The plates are incubated at 30° C. and cell growth is scored by reading the absorbance at 590 nm on an Elisa plate reader(Dynatech, MR.5000).

A further assay relates to C.trop. The description is as above. The settings on record: Candida tropicalis, 24 hr. Type of assay: cell-based, C.tropicalis.

Molecules are shown by their SMILES. pEC50, pIC50: −log10 of the molar value. Read-outs that look alike come from different tables or passages of the source.

Take `Cc1nccn1CCCCc1ccc(CC(=O)N[C@H](CO)C(=O)N[C@H](CCCCN)C(=O)N[C@H](CC2CCCCC2)C(=O)O)cc1` [Comparator Compound A, D-Alanine, 3-cyclohexyl-N-[N^2-[N-[[4-[4-(2-methyl-1H-imidazol-1-yl)butyl]phenyl]acetyl]-D-seryl]-D-lysyl]-, bis-trifluoroacetate]: the pIC50 on human NMT (Comparator Compound A table) and on Candida albicans NMT (Comparator Compound A table) was < 3.00 throughout. Further, on Candida albicans NMT (result in words), the “inhibition of purified C. albicans Nmt in vitro” value was “not an inhibitor”. Further, the negative logarithm of the EC50 (pEC50) in the assay on C.lusi., in the assay on C.alb (516) and in the assay with C.trop. was < 3.60 throughout.
As for `Cc1nccn1CCCCc1ccc(CC(=O)N[C@@H](CO)C(=O)N[C@@H](CCCCN)C(=O)N[C@@H](CC2CCCCC2)C(=O)O)cc1` [Example 2, L-Alanine, 3-cyclohexyl-N-[N^2-[N-[[4-[4-(2-Methyl-1H-imidazol-1-yl)butyl]phenyl]acetyl]-L-seryl]-L-lysyl]-, bis-trifluoroacetate], the pIC50 (as a rule, −log10 of the IC50, conventionally taken in molar units) at human NMT (Table V) is 3.09; at Candida albicans NMT (Table V), 5.85. The Selectivity on Candida albicans NMT (ratio of IC50 against human NMT to IC50 against C. albicans NMT) amounted to 560. Besides, the pEC50 in the assay on C.lusi., with C.alb (516) and in the assay with C.trop. was < 3.60 throughout.
